Results: US4309559A, “Sulphonamides useful as pesticides” (FBC Limited, priority 1977, dated 1982)

What was measured:
[1] = system: Linseed (Linum usitatissimum); experiment: Soil incorporation (attaclay/sand dust), growth regulatory or herbicidal effects, linseed; type: in vivo; conditions: 504 h, soil incorporation 130 ppm, 21 days, 0=no effect, 100=complete kill/suppression, read-out: growth regulatory or herbicidal effect score
From the text: (§1) The compounds listed below were each formulated as an attaclay/sand dust and incorporated into John Innes I potting compost at a rate equivalent to 26 parts per million weight/volume of active ingredient to soil and placed in anodised aluminium pans, 19 cm long×9.5 cm wide×5.0 cm deep. This rate is approximately equivalent to a soil surface application of 11.2 kg active ingredient/hectare cultivated to a depth of 5 cm. Seeds of the species listed below were sown in the treated soil, watered and placed in a controlled environment room (22° C.; 65-85% relative humidity; 14 hours per day artificial illumination at 13,000 lux) for 21 days. The plants were then visually assessed for any growth regulatory or herbicidal effects. All differences from an untreated control were scored on a scale from 0-100, where 0 signifies no effect and 100 signifies complete kill.
(§2) The compounds listed below were tested according to the procedure of Examples 56-60 but at 130 parts per million weight/volume of active ingredient to soil. This rate is approximately equivalent to a soil surface application of 56 kg active ingredient per hectare cultivated to a depth of 5 cm.
(§3) The product of Example 95 was tested according to the procedure of Examples 56-60 but at 130 and 26 parts per million weight/volume. The results were as follows:
(§4) N-(2-oxopropyl)-2'-chloro-6'-methyl-methanesulphonanilide, formulated as an attaclay/sand dust, was incorporated in John Innes I potting compost at a rate equivalent to 130 parts per million weight/volume of active ingredient to soil and placed in anodised aluminium pans, 19 cm long×9.5 cm wide×5.0 cm deep. These rates are approximately equivalent to a soil surface application of 56 kg active ingredient per hectare cultivated to a depth of 5 cm. Seeds of Peas, Mustard, Linseed, Maize, Oats and Ryegrass were sown in the treated soil, watered and placed in a controlled environment room (22° C.; 65-85% relative humidity; 14 hours artificial illumination at 13000 lux) for 21 days.
(§5) The plants were then visually assessed for any growth regulatory or herbicidal effects. All differences from an untreated control were scored on a scale from 0-100, where 0 signifies no effect and 100 signifies complete suppression.

Oats (Avena sativa) = experiment: Soil incorporation (attaclay/sand dust), growth regulatory or herbicidal effects, oats; type: in vivo; conditions: 504 h, soil incorporation 130 ppm, 21 days, 0=no effect, 100=complete kill/suppression, read-out: growth regulatory or herbicidal effect score
From the text: as §1, §2, §3, §4, §5

Peas (Pisum sativum) = experiment: Soil incorporation (attaclay/sand dust), growth regulatory or herbicidal effects, peas; type: in vivo; conditions: Lathyrus oleraceus, 504 h, soil incorporation 130 ppm, 21 days, 0=no effect, 100=complete kill/suppression, read-out: growth regulatory or herbicidal effect score
From the text: as §1, §2, §3, §4, §5

[2] = system: Ryegrass (Lolium perenne); experiment: Soil incorporation (attaclay/sand dust), growth regulatory or herbicidal effects, ryegrass; type: in vivo; conditions: 504 h, soil incorporation 130 ppm, 21 days, 0=no effect, 100=complete kill/suppression, read-out: growth regulatory or herbicidal effect score
From the text: as §1, §2, §3, §4, §5

Mustard (Sinapis alba) = experiment: Soil incorporation (attaclay/sand dust), growth regulatory or herbicidal effects, mustard; type: in vivo; conditions: 504 h, soil incorporation 130 ppm, 21 days, 0=no effect, 100=complete kill/suppression, read-out: growth regulatory or herbicidal effect score
From the text: as §1, §2, §3, §4, §5

Maize (Zea mays) = experiment: Soil incorporation (attaclay/sand dust), growth regulatory or herbicidal effects, maize; type: in vivo; conditions: 504 h, soil incorporation 130 ppm, 21 days, 0=no effect, 100=complete kill/suppression, read-out: growth regulatory or herbicidal effect score
From the text: as §1, §2, §3, §4, §5

Pythium ultimum [3] = experiment: Cabbage seedling emergence in soil infected with Pythium ultimum; type: in vivo, Pythium ultimum (on cabbage, variety Flower of Spring); conditions: 6 days, 25° C.
Description: (§6) A one week old maize meal/sand culture of the damping-off disease organism Pythium ultimum was thoroughly mixed by hand with clean sterile John Innes No. 1 potting compost in the ratio of 3 kg culture to 12 liters of soil. The infected soil was then left for approximately 18 hours before use. Each of the compounds listed below was ground together with a wetting agent, Tween 20 (1% of final volume), until a solution or fine suspension was produced which was then diluted with distilled water to give 160 ml of solution containing 1500, 500, 150 or 50 ppm active ingredient. 15 ml aliquots of this solution were added to 75 g portions of the soil infected with Pythium ultimum which were contained in small plastic cartons, 60 mm diameter×55 mm high. Fifteen cabbage seeds, variety Flower of Spring, were placed in a circular depression in the treated infected soil, recovered, and the whole sealed with a plastic cap. The cartons were then placed in a constant temperature room at 25° C.±1° C. Four replications per treatment were made with one additional treatment where seeds were sown in soil which was chemically treated only, i.e. there was no infection. This latter treatment was included to measure the direct effect of the chemical on the germination of the seed. After six days the cartons were removed from the controlled temperature chamber and assessed for degree of fungal growth on the soil surface and percentage of seedling emergence. The results of both these assessments are expressed in a 0-8 scale as follows:
(§7) One week old maize meal/sand culture of the damping-off disease organism Pythium ultimum was thoroughly mixed by hand with clean sterile John Innes No. 1 potting compost in the ratio of 3 kg culture to 12 liters of soil. This infected soil was then left for approximately 18 hours before use. The compounds listed in the Table below were each ground with the wetting agent Tween 20 (1% of final volume), until a solution or fine suspension was produced, which was then diluted with distilled water to give 160 ml of solution containing 1500 or 500 parts per million (ppm) active ingredient. 15 ml aliquots of this solution were added to 75 g portions of the soil infected with Pythium ultimum which were contained in small plastic cartons, 60 mm diameter×55 mm high.
(§8) Fifteen cabbage seeds, variety Flower of Spring, were placed in a circular depression in the treated infected soil, recovered, and the whole sealed with a plastic cap. The cartons were then placed in a constant temperature room at 25° C.±1° C. Four replications per treatment were made, with one additional treatment where seeds were sown in soil which was chemically treated only, i.e. there was no infection. This latter treatment was included to measure the direct effect of the chemical on the germination of the seed.
(§9) After six days, the cartons were removed from the controlled temperature chamber and assessed for degree of fungal growth on the soil surface and percentage of seedling emergence. The results of both these assessments are expressed in a 0-8 scale as follows:
(§10) N-(2-oxopropyl)-3',4'-dimethyl-methanesulphonanilide was tested at a dose rate of 300 ppm in the test described in Examples 233 and 234. It gave a mycelial control score of 0 and a germination score of 3 whereas the untreated samples gave a score of 0 for both.

Pythium ultimum [4] = experiment: Fungal growth on the surface of soil infected with damping-off disease organism; type: in vivo; conditions: 6 days, 25° C.
Description: as §6, §7, §8, §9, §10

[5] = 300 ppm, 0-8 scale (Examples 233, 234, 268)

Compound	pest or weed control at 130 µg/mL [1] [%]	plant injury at 130 µg/mL (Oats (Avena sativa)) [%]	pest or weed control at 130 µg/mL (Peas (Pisum sativum)) [%]	pest or weed control at 130 µg/mL [2] [%]	pest or weed control at 130 µg/mL (Mustard (Sinapis alba)) [%]	plant injury at 130 µg/mL (Maize (Zea mays)) [%]	Germination Score (Pythium ultimum [3]; 30 ppm, 0-8 scale)	Germination Score (Pythium ultimum [3]; 100 ppm, 0-8 scale)	Germination Score (Pythium ultimum [3]; 300 ppm, 0-8 scale)	Mycelial Control Score (Pythium ultimum [4]; 30 ppm, 0-8 scale)	Mycelial Control Score (Pythium ultimum [4]; 100 ppm, 0-8 scale)	Mycelial Control Score (Pythium ultimum [4]; 300 ppm, 0-8 scale)	Germination Score (Pythium ultimum [3]; [5])	Mycelial Control Score (Pythium ultimum [4]; [5])
CC(C(=O)O)N(c1ccc(Cl)c(Cl)c1)S(C)(=O)=O (centres unmarked) [Example 4]	90	40	70	0	70	70								
CCc1ccccc1N(C(C)C(=O)O)S(C)(=O)=O (centres unmarked) [Example 5]	70	30	30	20	50	30								
Cc1cccc(C)c1N([C@@H](C)C(=O)O)S(C)(=O)=O [Example 7, N-(2,6-dimethylphenyl)-N-methanesulphonyl alanine]	50	30	20	0	70	30								
CCS(=O)(=O)N(c1c(C)cccc1C)C(C)C(=O)O (centres unmarked) [Example 9]	80	20	50	20	70	30	1 (20-34% inhibition)	5 (65-74% inhibition)	5 (65-74% inhibition)	0 (<20% inhibition)	0 (<20% inhibition)	0 (<20% inhibition)		
CCOC(=O)CN(c1ccc(Cl)cc1)S(C)(=O)=O [Example 12]	80	5	40	5	70	0								
CCOC(=O)CN(c1c(C)cccc1C)S(C)(=O)=O [Example 14]	90	20	30	30	100	40								
CCOC(=O)CN(c1cccc(C(F)(F)F)c1)S(C)(=O)=O [Example 17]	90	0	40	0	40	0								
CCOC(=O)CN(c1ccc(Cl)c(Cl)c1)S(C)(=O)=O [Example 18]	80	0	40	30	40	30								
CCN(CC)C(=O)CN(c1ccc(Cl)cc1)S(C)(=O)=O [Example 35]	40	20	20	20	100	20								
CCN(CC)C(=O)CN(c1c(C)cccc1C)S(C)(=O)=O [Example 36]	40	20	20	20	100	20								
CS(=O)(=O)N(CC#N)c1ccc(Cl)cc1 [Example 45]	90	70	20	80	100	30								
CC(C)c1ccccc1N(CC#N)S(C)(=O)=O [Example 47]	100	30	10	50	80	10								
CS(=O)(=O)N(CC#N)c1cccc(C(F)(F)F)c1 [Example 48]	100	80	50	90	100	40								
CC(=O)CN(c1c(C)cccc1Cl)S(C)(=O)=O [Example 210, N-2-oxopropyl-2'-chloro-6'-methyl-methanesulphonanilide]	80	60	30	70	100	5								
CC1(CN(c2ccc(Cl)cc2)S(C)(=O)=O)OCCO1 [Example 228, N-[(2-methyl-1,3-dioxolan-2-yl)methyl]-4'-chloro-methanesulphonanilide]													0 (<20% inhibition)	8 (>94% inhibition)
